Type in all cases: cell-based
The subject of test [1] is estrogen receptor negative breast (BT20) cell line. The test is described as follows: Growth of human tumor cells in culture, BT20 (Trypan blue exclusion). To be noted: 96 h continuous treatment, viable cells by Trypan blue exclusion. The procedure:
(§1) The effect of compounds according to Formula I on the growth of human tumor cells in culture was evaluated using androgen receptor negative prostate (DU145), colo-rectal (DLD-1), non-small cell lung carcinoma (H157), estrogen receptor negative breast (BT20) and chronic myeloid leukemia (K562) cell lines. All cell cultures were maintained at 37° C. in a humidified atmosphere of 5% CO2.
(§2) Cells were treated with compounds according to Formula I at five different concentrations (1-100 μM range) for each compound. The dose response of each cell line was established by determining the number of viable cells after 96 h of continuous treatment against each of the different test concentrations of each compound. The determination of viable cells was done by the by the Trypan blue exclusion method. Activity for each compound at each concentration is reported as a percentage of cells that remain viable.

The subject of test [2] is chronic myeloid leukemia (K562) cell line. Nature of the test: Growth of human tumor cells in culture, K562 (Trypan blue exclusion). The settings on record: 96 h continuous treatment, viable cells by Trypan blue exclusion. As for the experimental part:
as §1, §2

Test [3] concerns androgen receptor negative prostate (DU145) cell line. The test is described as follows: Growth of human tumor cells in culture, DU145 (Trypan blue exclusion). To be noted: 96 h continuous treatment, viable cells by Trypan blue exclusion. As for the experimental part:
as §1, §2

Test [4] has as its system colo-rectal (DLD-1) cell line. Nature of the test: Growth of human tumor cells in culture, DLD-1 (Trypan blue exclusion). The settings on record: DLD-1 cells, 96 h continuous treatment, viable cells by Trypan blue exclusion. As for the experimental part:
as §1, §2

In test [5] the test system is non-small cell lung carcinoma (H157) cell line. The test is described as follows: Growth of human tumor cells in culture, H157 (Trypan blue exclusion). To be noted: viable cells by Trypan blue exclusion. The procedure:
as §1, §2

For test [6], the target named is T1, JNK1 (Homo sapiens, UniProt P45983).
T1 construct: JNK1 in 100 μg of cell lysate was immunoprecipitated; endogenous in cells; host or cells: BT-20 cells
T1 sequence (P45983 whole entry): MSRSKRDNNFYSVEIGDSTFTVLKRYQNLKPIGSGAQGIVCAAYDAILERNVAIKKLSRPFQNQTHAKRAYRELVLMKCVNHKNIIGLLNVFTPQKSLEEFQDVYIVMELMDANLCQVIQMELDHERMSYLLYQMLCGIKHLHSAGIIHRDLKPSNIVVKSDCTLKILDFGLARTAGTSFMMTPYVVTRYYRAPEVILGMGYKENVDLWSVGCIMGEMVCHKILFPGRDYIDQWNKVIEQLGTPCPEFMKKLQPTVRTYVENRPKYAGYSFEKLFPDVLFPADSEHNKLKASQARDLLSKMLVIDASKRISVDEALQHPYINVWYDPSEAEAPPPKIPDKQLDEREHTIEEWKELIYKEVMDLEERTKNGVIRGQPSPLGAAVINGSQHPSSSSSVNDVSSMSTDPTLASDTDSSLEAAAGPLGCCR
Nature of the test: Activation of Jun kinase: JNK1 immunoprecipitated from treated BT-20 cells, phosphorylation of GST-c-Jun. The settings on record: 50 and 100 μM in DMSO, 12 hours at 37° C., compared to DMSO controls. The procedure: The compounds of Examples 1, 2, 7, 8 and 9 from Table 3 were analyzed for activation of the Jun kinase signaling pathway. The selected compounds were added to BT-20 cells at concentrations of 50 and 100 μM in dimethyl sulfoxide (DMSO) and incubated for 12 hours at 37° C. The cells were harvested and lysed after 12 hours of treatment. The cell lysates were then analyzed for c-Jun kinase activity by immunoprecipitating JNK1 and assessing the ability of these immunoprecipitates to phosphorylate GST-linked c-Jun. Lysis of the cells was performed after incubation with […], using the lysis buffer [25 mM N-2-hydroxyethylpiperazine-N′-2-ethanesulfonic acid (HEPES) (pH 7.6), 0.1% Triton, 300 mM NaCl, 20 mM β-glycerophosphate, 1.5 mM MgCl2, 0.2 mM ethylenediaminetetraacetic acid (EDTA), 0.5 mM dithiothreitol (DTT), 0.2 mM Na3VO4, 100 μM phenylmethylsulfonyl fluoride (PMSF), 1 mM benzamidine, 2 μg/mL leupeptin and 4 μg/mL aprotinin]. Protein concentrations were measured using Bio-Rad protein assay reagent. JNK1 in 100 μg of cell lysate was immunoprecipitated by incubating […] of lysate protein with […] of the JNK1 polyclonal antibody (Santa Cruz Biotechnology, Inc.,) for 1 h followed by an additional incubation with […] of protein A-Sepharose (Pharmacia) for 1 h. The immune complex bound protein A-Sepharose beads were washed twice with the lysis buffer and twice with JNK buffer (20 mM HEPES, pH 7.6, 20 mM β-glycerophosphate, 10 mM MgCl2 and […] Na3VO4. The kinase reaction was carried out by resuspending the complex bound protein A-Sepharose beads in […] of JNK buffer containing […] [γ-^32P]ATP (5000 CPM/pmol) and incubating them for 20 min at 30° C. using 5 mg GST-c-Jun as substrate. The reaction was terminated by the addition of Laemmli's buffer. The samples were then boiled for 3 min. The phosphorylated GST-c-Jun was then separated on 12% SDS-PAGE. Following the separation, the gel was dried, and an autoradiogram was developed which is reproduced in FIG. 1.

Where [7] appears, read: Homo sapiens, NCI-H157, 96 h continuous treatment.

`COc1ccc(NS(=O)(=O)c2cc3cc(Br)ccc3oc2=O)cc1` [Example 1, 6-Bromo-N-(4-methoxyphenyl)-2-oxo-2H-chromene-3-sulfonamide]: the GI50 was 16 µM in test [1] (Homo sapiens, BT-20, 96 h); 14 µM in test [2] (Homo sapiens, K562, 96 h); 15 µM in test [3] (Homo sapiens, DU-145, 96 h); 20 µM in test [4] (Homo sapiens, DLD-1, 96 h); 18 µM in test [5] (setting [7]). In addition, in test [6], the “c-Jun kinase activity: phosphorylation of GST-c-Jun by immunoprecipitated JNK1 (autoradiogram, FIG. 1)” value (“c-Jun kinase activity: phosphorylation” for short) was “hyperphosphorylated”.
As for `COc1ccc(NS(=O)(=O)c2cc3cc(Cl)ccc3oc2=O)cc1` [Example 2, 6-Chloro-N-(4-methoxyphenyl)-2-oxo-2H-chromene-3-sulfonamide], the 50% growth inhibitory concentration (GI50) came to 27 µM in test [1] (Homo sapiens, BT-20, 96 h); 23 µM in test [2] (Homo sapiens, K562, 96 h); 22 µM in test [3] (Homo sapiens, DU-145, 96 h); 32 µM in test [4] (Homo sapiens, DLD-1, 96 h); 28 µM in test [5] (setting [7]). Moreover, the “c-Jun kinase activity: phosphorylation” value in test [6] was “hyperphosphorylated”.
As to `CCOc1cccc2cc(S(=O)(=O)Nc3ccc(OC)cc3)c(=O)oc12` [Example 3, 8-Ethoxy-N-(4-methoxyphenyl)-2-oxo-2H-chromene-3-sulfonamide], the GI50 in test [1] came out at 52 µM; in test [2], 48 µM; in test [3] it was 57 µM; in test [4], 78 µM; in test [5] (96 h continuous treatment) it was 74 µM.
Take `COc1ccc(NS(=O)(=O)c2cc3cc(Cl)ccc3oc2=O)cc1O` [Example 4, 6-Chloro-N-(3-hydroxy-4-methoxyphenyl)-2-oxo-2H-chromene-3-sulfonamide]: the GI50 stood at 65 µM in test [1] (Homo sapiens, BT-20, 96 h); 51 µM in test [2] (Homo sapiens, K562, 96 h); 42 µM in test [3] (Homo sapiens, DU-145, 96 h); 82 µM in test [4] (Homo sapiens, DLD-1, 96 h); 76 µM in test [5] (setting [7]).
As for `CCOc1cccc2cc(S(=O)(=O)Nc3ccc(F)c(N)c3)c(=O)oc12` [Example 5, N-(3-Amino-4-fluorophenyl)-8-ethoxy-2-oxo-2H-chromene-3-sulfonamide], the GI50 in test [1] (Homo sapiens, BT-20, 96 h) is 54 µM; in test [2] (Homo sapiens, K562, 96 h), 42 µM; in test [3] (Homo sapiens, DU-145, 96 h) it was 48 µM; in test [4] (Homo sapiens, DLD-1, 96 h) it was 80 µM; in test [5] (setting [7]) it was 72 µM.
As for `COc1ccc2oc(=O)c(S(=O)(=O)Nc3ccc(F)c(N)c3)cc2c1` [Example 6, N-(3-Amino-4-fluorophenyl)-6-methoxy-2-oxo-2H-chromene-3-sulfonamide], the GI50 in test [1] (Homo sapiens, BT-20, 96 h) was found to be 68 µM; in test [2] (Homo sapiens, K562, 96 h) it was 44 µM; in test [3] (Homo sapiens, DU-145, 96 h), 56 µM; in test [4] (Homo sapiens, DLD-1, 96 h) it was 92 µM; in test [5] (setting [7]), 78 µM.
In the case of `COc1ccc2oc(=O)c(S(=O)(=O)Nc3ccc(Br)cc3)cc2c1` [Example 7, N-(4-Bromophenyl)-6-methoxy-2-oxo-2H-chromene-3-sulfonamide], the GI50 in test [1] (Homo sapiens, BT-20, 96 h) worked out at 18 µM; in test [2] (Homo sapiens, K562, 96 h), 27 µM; in test [3] (Homo sapiens, DU-145, 96 h) it was 25 µM; in test [4] (Homo sapiens, DLD-1, 96 h), 38 µM; in test [5] (setting [7]), 32 µM. Besides, the “c-Jun kinase activity: phosphorylation” value in test [6] is listed as “hyperphosphorylated”.
With `CCOc1cccc2cc(S(=O)(=O)Nc3ccc(OC)cc3)c(=O)oc12` [Example 8, 8-Ethoxy-N-(4-methoxyphenyl)-2-oxo-2H-chromene-3-sulfonamide], the GI50 in test [1] (Homo sapiens, BT-20, 96 h) came to 64 µM; in test [2] (Homo sapiens, K562, 96 h) it was 58 µM; in test [3] (Homo sapiens, DU-145, 96 h), 52 µM; in test [4] (Homo sapiens, DLD-1, 96 h) it was 85 µM; in test [5] (setting [7]), 74 µM. The “c-Jun kinase activity: phosphorylation” value in test [6] was “hyperphosphorylated”.
Take `O=c1oc2c(Cl)cccc2cc1S(=O)(=O)Nc1ccc(Br)cc1` [Example 9, N-(4-Bromophenyl)-8-chloro-2-oxo-2H-chromene-3-sulfonamide]: the GI50 in test [1] (Homo sapiens, BT-20, 96 h) was determined as 17 µM; in test [2] (Homo sapiens, K562, 96 h), 11 µM; in test [3] (Homo sapiens, DU-145, 96 h), 14 µM; in test [4] (Homo sapiens, DLD-1, 96 h), 18 µM; in test [5] (setting [7]), 16 µM. Moreover, the “c-Jun kinase activity: phosphorylation” value in test [6] is “hyperphosphorylated”.
`O=c1oc2c(Br)cccc2cc1S(=O)(=O)Nc1ccc(Br)cc1` [Example 10, N-(4-Bromophenyl)-8-bromo-2-oxo-2H-chromene-3-sulfonamide]: the GI50 came to 12 µM in test [1] (Homo sapiens, BT-20, 96 h); 16 µM in test [2] (Homo sapiens, K562, 96 h); 12 µM in test [3] (Homo sapiens, DU-145, 96 h); 14 µM in test [4] (Homo sapiens, DLD-1, 96 h); 15 µM in test [5] (setting [7]).

The record behind these values is patent US8143428B2, “Heteroaryl sulfones and sulfonamides and therapeutic uses thereof” (Temple University-Of The Commonwealth System of Higher …, priority 2004, dated 2012).
